{"source": "patent US20040106877A1", "about": "“Method and device for determining state of skin surface” (priority 2000, published 2004)", "format_in_all_cases": "cell-based", "key": {"[1]": {"system": "skin sections of a hairless mouse"}, "[2]": {"system": "skin sections of a hairless mouse", "test": "Skin surface potential difference relative to culture solution, capsaicin coated on the skin surface", "conditions": "FIG. 6", "source_text": "In a second method, upon measuring the skin surface condition of the first method, stimulation is imparted further to the skin model comprising a skin section and a culture solution to measure aforementioned potential difference. This potential difference changes as stimulation is imparted. This change means that a stream of ions has occurred in the epidermis. The direction of a stream of ions differs depending on stimulation. When there is a change compared to the value of untreated skin, it is interpreted that stimulation producing mobility of ions is imparted to the epidermis. The degree of skin stimulation is measured from the changed value. Upon imparting stimulation, the place of stimulation may be on skin surface or culture solution. In the case of skin surface, examples of methods for imparting stimulation include coating skin with a stimulating substance and physical stimulation. Also, in the case of culture solution, the method used is addition of stimulating substances. Examples of these stimulating substances include neuropeptide, histamine, surfactant, organic acid, and capsaicin. […] In addition, examples of said physical stimulation include barrier destruction by a cellophane adhesive tape and the like."}, "[3]": {"system": "skin sections of a hairless mouse", "test": "Skin surface potential difference relative to culture solution, substance P (SP) stimulation", "conditions": "FIG. 3"}}, "note": "Read-outs that look alike come from different tables or passages of the source. No end group written: not given here.", "data": [{"molecule": "Nc1ccncc1", "note": "[AP, aminopyridine]", "values": [{"measurement": "inhibition of the tape-stripping-induced change in potential difference", "setting": "[1]; drug added to culture solution after tape stripping, average of five measurements, FIG. 4, FIG. 5", "value": "reduces the change in potential difference"}]}, {"molecule": "NC1=N[C@H](O)[C@H]2[C@H]3O[C@]4(O)O[C@@H]([C@@H](O)[C@@]2(N1)[C@@H]4O)[C@]3(O)CO", "note": "[TTX, tetrodotoxin]", "values": [{"measurement": "inhibition of the tape-stripping-induced change in potential difference", "setting": "[1]", "value": "does not inhibit the change in a potential difference"}]}, {"molecule": "COc1cc(CNC(=O)CCCC/C=C/C(C)C)ccc1O", "note": "[capsaicin]", "values": [{"measurement": "time of maximum change in potential difference after coating", "setting": "[2]; capsaicin coated on skin surface", "value": 0.5, "unit": "h"}, {"measurement": "change in potential difference of the skin surface relative to culture solution after stimulating substance", "setting": "[2]; capsaicin coated on skin surface, compared with non-treated skin surface (control), average of five measurements", "value": "a rapid change in potential difference"}]}, {"molecule": "Oc1cc2c(cc1O)CN(C(=S)NCCc1ccc(Cl)cc1)CCC2", "note": "[capsazepine]", "values": [{"measurement": "inhibition of the capsaicin-induced change in potential difference", "setting": "[2]; drug coated on skin surface after capsaicin", "value": "the range of change in potential difference is reduced"}]}, {"molecule": "[D-Arg1, D-Trp7, 9, Leu11]-SubstanceP [SP antagonist]", "values": [{"measurement": "inhibition of the SP-induced change in potential difference", "setting": "[3]; drug added to culture solution before adding SP, observed for 2 hours", "value": "no rapid and significant change in potential difference is produced"}]}, {"molecule": "substance P (RPKPQQFFGLM; ends and bridges not checked; UniProt P20366 58-68, looked up) [SP, neuropeptide used as a stimulating substance]", "values": [{"measurement": "time after addition when the potential difference returns to a value close to control", "setting": "[3]; SP added to culture solution", "value": 2, "unit": "h"}, {"measurement": "time of peak of the potential difference change after addition", "setting": "[3]; SP added to culture solution", "value": 1, "unit": "h"}, {"measurement": "change in potential difference of the skin surface relative to culture solution after stimulating substance", "setting": "[3]; SP added to culture solution, compared with non-treated skin surface (control), average of five measurements", "value": "a rapid change in a potential difference is produced"}]}]}
